The record followed here is patent US7273863B1, “Benzophenones as inhibitors of reverse transcriptase” (SmithKline Beecham Corporation, priority 1999, dated 2007).

Type in all cases: cell-based
One assay has as its system NEV-R. Nature of the assay: MT4 cell assay, antiviral HIV activity (propidium iodide). To be noted: Human immunodeficiency virus 1, MT4, read-out: IC50 (nM) Range.
Assay [1] deals with isogenic HIV-1 RT mutant virus E138K. Nature of the assay: HeLa cell assay (HIV-LTR β-galactosidase reporter). To be noted: Human immunodeficiency virus 1, HeLa, read-out: IC50 (nM) Range. The method, then:
(§1) The HeLa cell assay was performed according to a modification of Kimpton J. and Emerman M., Detection of replication-competent and pseudotyped human immunodeficiency virus with a sensitive cell line on the basis of activation of an integrated β-galactosidase gene, J. Virol. 66:2232-2239 (1992), in which HIV-1 infection is detected by the activation of an HIV-LTR driven β-galactosidase reporter that is integrated into the genome of a CD4^+ HeLa cell line. Quantitation of β-galactosidase is achieved by measuring the activation of a chemiluminescent substrate (Tropix). The concentration of each compound required to inhibit 50% (IC50) of the HIV-1 induced β-galactosidase signal, relative to untreated controls, was determined for each isogenic, recombinant virus.
(§2) HeLa-CD4-LTR-β-gal cells were obtained from the NIH AIDS Research and Reference Reagent Program. Cells were propagated in DMEM containing 10% fetal bovine serum, 0.2 mg/ml geneticin and 0.1 mg/ml hygromycin B. Cells were routinely split by trypsinization when confluency reached 80% (approximately every 2 to 3 days).
(§3) DNA encoding the HIV-1 reverse transcriptase was subcloned from a M13 phage into a general shuttle vector, pBCSK+, as a ˜1.65 kbp EcoRI/HindIII ended DNA fragment. The HIV DNA insert of the resulting plasmid, pRT2, was completely sequenced on both strands prior to use in site directed mutagenesis experiments. Specific amino acid replacements were made using Stratagene Quick Change reagents and mutagenic oligonucleotides from Oligos. Following mutagenesis, the entire mutant RT coding sequence was verified by sequencing both DNA strands.
(§4) Mutant HIV-1 strains were isolated by a modified Recombinant Virus Assay (Kellam P. and Larder B., Recombinant virus assay: a rapid, phenotypic assay for assessment of drug susceptibility of human immunodeficiency virus type 1 isolates, Antimicrobial Agents and Chemotherapy, 38:23-30, 1994). 1×10^7 Jurkat T-cells (maintained in RPMI containing 10% fetal bovine serum, split 1:5 every 5 to 6 days) were co-transfected with EcoRI/HindIII digested mutant RT plasmid and Bst EII-digested HIV-1HXB2ΔRT DNA in the presence of DMRIE-C transfection reagent (Gibco) according to supplier's recommended protocol. Each mutant RT coding sequence was crossed into the RT-deleted HIV-1 viral DNA backbone by in vivo homologous recombination. Transfected cell cultures were expanded and monitored until syncitia formation and CPE were extensive. Virus was harvested by clear spin of the culture supernatants and frozen at −80 C as primary stock. Recombinant progeny virus was sequenced in the RT region to confirm the mutant genotype. Virus stocks were further expanded by infection of Jurkat cells, harvested and stored as frozen aliquots. Stocks were titered in HeLa MAGI cells for assay.
(§5) The HIV-1HXB2 mutants were titered in the HeLa MAGI assay system to determine the relative light units (RLU) per ml, a measure of infectivity relevant for this assay system. Virus stocks were diluted in a 2-fold series into DMEM containing 10% fetal bovine serum plus 20 ug/ml DEAE-dextran and assayed as described in the Experimental Protocol section, below.
(§6) 96-well microtiter plate(s) (Costar #3598) were seeded with 3×10^3 HeLa-CD4-LTR-β-gal in 100 μl DMEM containing 10% fetal bovine serum. Plates were placed in a 37° C., 5% CO2 humidified incubator overnight. The following day, mutant virus stocks were thawed in a room temperature water bath and diluted into DMEM containing 10% fetal bovine serum and 20 μg/ml DEAE-dextran to achieve an input of 1500 to 2000 RLU/ml. All media was removed with an 8 channel manifold aspirator and 35 μl (50 to 70 total RLUs) of diluted virus was added to each well for virus adsorption. Plates were placed in a 37° C., 5% CO2 humidified incubator for 1.5 to 2 hours.
(§7) Compound titration plates were prepared at 1.35× final concentration during the virus adsorption period. […]

In assay [2] the test system is isogenic HIV-1 RT mutant virus G190A. The assay is described as follows: HeLa cell assay (HIV-LTR β-galactosidase reporter). The conditions noted are these: Human immunodeficiency virus 1, HeLa, read-out: IC50 (nM) Range. The method, then: as §1, §2, §3, §4, §5, §6, §7
For assay [3], the system named is isogenic HIV-1 RT mutant virus G190E. Nature of the assay: HeLa cell assay (HIV-LTR β-galactosidase reporter). The conditions noted are these: Human immunodeficiency virus 1, HeLa, read-out: IC50 (nM) Range. The method, then: as §1, §2, §3, §4, §5, §6, §7
Assay [4] deals with isogenic HIV-1 RT mutant virus K101E. Nature of the assay: HeLa cell assay (HIV-LTR β-galactosidase reporter). To be noted: Human immunodeficiency virus 1, HeLa, read-out: IC50 (nM) Range. The procedure: as §1, §2, §3, §4, §5, §6, §7
The test system of assay [5] is isogenic HIV-1 RT mutant virus K103N/G190A. Nature of the assay: HeLa cell assay (HIV-LTR β-galactosidase reporter). To be noted: Human immunodeficiency virus 1, HeLa, read-out: IC50 (nM) Range. The procedure:
as §1, §2, §3, §4, §5, §6, §7

For assay [6], the system named is isogenic HIV-1 RT mutant virus K103N/L1001. The assay is described as follows: HeLa cell assay (HIV-LTR β-galactosidase reporter). To be noted: Human immunodeficiency virus 1, HeLa, read-out: IC50 (nM) Range. The procedure: as §1, §2, §3, §4, §5, §6, §7
Assay [7] concerns isogenic HIV-1 RT mutant virus K103N/P225H. Nature of the assay: HeLa cell assay (HIV-LTR β-galactosidase reporter). To be noted: Human immunodeficiency virus 1, HeLa, read-out: IC50 (nM) Range. The procedure:
as §1, §2, §3, §4, §5, §6, §7

Assay [8] relates to isogenic HIV-1 RT mutant virus K103N/V108I. The assay is described as follows: HeLa cell assay (HIV-LTR β-galactosidase reporter). The conditions noted are these: Human immunodeficiency virus 1, HeLa, read-out: IC50 (nM) Range. The method, then: as §1, §2, §3, §4, §5, §6, §7
In assay [9] the test system is isogenic HIV-1 RT mutant virus K103N/Y181C. The assay is described as follows: HeLa cell assay (HIV-LTR β-galactosidase reporter). The conditions noted are these: Human immunodeficiency virus 1, HeLa, read-out: IC50 (nM) Range. The procedure:
as §1, §2, §3, §4, §5, §6, §7

Assay [10] relates to isogenic HIV-1 RT mutant virus K103N. The assay is described as follows: HeLa cell assay (HIV-LTR β-galactosidase reporter). The conditions noted are these: Human immunodeficiency virus 1, HeLa, read-out: IC50 (nM) Range. The method, then:
as §1, §2, §3, §4, §5, §6, §7

The test system of assay [11] is isogenic HIV-1 RT mutant virus L100I. The assay is described as follows: HeLa cell assay (HIV-LTR β-galactosidase reporter). To be noted: Human immunodeficiency virus 1, HeLa, read-out: IC50 (nM) Range. The procedure: as §1, §2, §3, §4, §5, §6, §7
The subject of assay [12] is isogenic HIV-1 RT mutant virus P225H. The assay is described as follows: HeLa cell assay (HIV-LTR β-galactosidase reporter). The conditions noted are these: Human immunodeficiency virus 1, HeLa, read-out: IC50 (nM) Range. The procedure:
as §1, §2, §3, §4, §5, §6, §7

Assay [13] concerns isogenic HIV-1 RT mutant virus P236L. Nature of the assay: HeLa cell assay (HIV-LTR β-galactosidase reporter). The conditions noted are these: Human immunodeficiency virus 1, HeLa, read-out: IC50 (nM) Range. The method, then: as §1, §2, §3, §4, §5, §6, §7
The test system of assay [14] is isogenic HIV-1 RT mutant virus V106A/Y181C. Nature of the assay: HeLa cell assay (HIV-LTR β-galactosidase reporter). The conditions noted are these: Human immunodeficiency virus 1, HeLa, read-out: IC50 (nM) Range. The method, then: as §1, §2, §3, §4, §5, §6, §7
In assay [15] the test system is isogenic HIV-1 RT mutant virus V106A. Nature of the assay: HeLa cell assay (HIV-LTR β-galactosidase reporter). The conditions noted are these: Human immunodeficiency virus 1, HeLa, read-out: IC50 (nM) Range. The method, then:
as §1, §2, §3, §4, §5, §6, §7

The subject of assay [16] is isogenic HIV-1 RT mutant virus V106I/Y181C. The assay is described as follows: HeLa cell assay (HIV-LTR β-galactosidase reporter). The conditions noted are these: Human immunodeficiency virus 1, HeLa, read-out: IC50 (nM) Range. The procedure: as §1, §2, §3, §4, §5, §6, §7
Assay [17] relates to isogenic HIV-1 RT mutant virus V106I. Nature of the assay: HeLa cell assay (HIV-LTR β-galactosidase reporter). The conditions noted are these: Human immunodeficiency virus 1, HeLa, read-out: IC50 (nM) Range. The method, then: as §1, §2, §3, §4, §5, §6, §7
Assay [18] deals with isogenic HIV-1 RT mutant virus V108I/Y181C. Nature of the assay: HeLa cell assay (HIV-LTR β-galactosidase reporter). To be noted: Human immunodeficiency virus 1, HeLa, read-out: IC50 (nM) Range. The procedure:
as §1, §2, §3, §4, §5, §6, §7

Assay [19] concerns isogenic HIV-1 RT mutant virus V108I. The assay is described as follows: HeLa cell assay (HIV-LTR β-galactosidase reporter). The conditions noted are these: Human immunodeficiency virus 1, HeLa, read-out: IC50 (nM) Range. The method, then:
as §1, §2, §3, §4, §5, §6, §7

Assay [20] concerns isogenic HIV-1 RT mutant virus Y181C. Nature of the assay: HeLa cell assay (HIV-LTR β-galactosidase reporter). The conditions noted are these: Human immunodeficiency virus 1, HeLa, read-out: IC50 (nM) Range. The method, then:
as §1, §2, §3, §4, §5, §6, §7

Assay [21] deals with isogenic HIV-1 RT mutant virus Y188C. Nature of the assay: HeLa cell assay (HIV-LTR β-galactosidase reporter). The conditions noted are these: Human immunodeficiency virus 1, HeLa, read-out: IC50 (nM) Range. The procedure:
as §1, §2, §3, §4, §5, §6, §7

`Cc1cc(S(N)(=O)=O)ccc1NC(=O)COc1ccc(Cl)cc1C(=O)c1cc(F)cc(F)c1` [Compound 62]: the half-maximal inhibitory concentration (IC50) in the assay with NEV-R is less than 10 nM; in [1] it was less than 10 nM; in [2] it was less than 10 nM; in [3] it was less than 10 nM; in assay [4] it was less than 10 nM; in assay [5] it was 11 to 100 nM. Also, the IC50 in assay [6] is less than 10 nM; in [7] it was less than 10 nM; in assay [8] it was less than 10 nM; in assay [9] it was 11 to 100 nM; in assay [10], less than 10 nM; in assay [11], less than 10 nM. The IC50 in assay [12] is less than 10 nM; in assay [13] it was 11 to 100 nM; in assay [14] it was 11 to 100 nM; in assay [15] it was 11 to 100 nM; in [16], 11 to 100 nM; in assay [17], less than 10 nM. Also, the IC50 in assay [18], in assay [19], in assay [20] and in assay [21] was less than 10 nM each time.

As for `Cc1cc2nc[nH]c2cc1NC(=O)COc1ccc(Cl)cc1C(=O)c1cc(F)cc(C(F)(F)F)c1` [Compound 239], the IC50 was less than 10 nM with NEV-R; less than 10 nM in [1]; less than 10 nM in assay [2]; less than 10 nM in [3]; less than 10 nM in [4]; 11 to 100 nM in [5]. The IC50 in [6] was less than 10 nM; in assay [7], less than 10 nM; in [8], less than 10 nM; in assay [9], 11 to 100 nM; in assay [10], less than 10 nM; in [11] it was less than 10 nM. Also, the IC50 was less than 10 nM in assay [12]; less than 10 nM in [13]; 101 to 1000 nM in [14]; 11 to 100 nM in assay [15]; less than 10 nM in [16]; less than 10 nM in assay [17]. The half-maximal inhibitory concentration (IC50) in [18], in assay [19], in assay [20] and in assay [21] was less than 10 nM throughout.

Regarding `Cc1cc(S(N)(=O)=O)ccc1NC(=O)COc1ccc(Cl)cc1C(=O)c1cc(F)cc(C(F)(F)F)c1` [Compound 78], the IC50 in the assay on NEV-R was less than 10 nM; in assay [1], less than 10 nM; in assay [2] it was less than 10 nM; in [3], less than 10 nM; in assay [4], less than 10 nM; in assay [5], 11 to 100 nM. Besides, the IC50 in [6], in [7], in [8], in assay [9], in assay [10] and in assay [11] was less than 10 nM each time. Besides, the IC50 is less than 10 nM in assay [12]; less than 10 nM in [13]; 11 to 100 nM in assay [14]; 11 to 100 nM in assay [15]; 11 to 100 nM in assay [18]; less than 10 nM in assay [19]. Also, the IC50 in assay [20] and in assay [21] was less than 10 nM throughout.

As a reminder, the IC50 is the concentration needed to halve the response being measured.
